This data set relates to CCRIS mutagenicity, Ames/micronucleus/aberration tests. Put plainly: CCRIS mutagenicity studies.
Setting [1] is: Test System: AMES SALMONELLA TYPHIMURIUM, Strain/Indicator: TA98, Metabolic Activation: NONE, Method: PREINCUBATION
The mark [2] stands for this setting: Test System: AMES SALMONELLA TYPHIMURIUM, Strain/Indicator: TA100, Metabolic Activation: NONE, Method: PREINCUBATION

From PubChem BioAssay AID1259407 (Chemical Carcinogenesis Research Information System (CCRIS), 2018) come the findings set out here.

Calls of active or inactive are those of the source. The rule behind the calls is not given here.

Take `C1CCNC1`: the mutagenic call is “inactive; negative” under setting [1]; “inactive; negative” (Test System: AMES SALMONELLA TYPHIMURIUM, Strain/Indicator: TA98, Metabolic Activation: RAT, LIVER, S-9, PCB, Method: PREINCUBATION); “inactive; negative” under setting [2]; “inactive; negative” (Test System: AMES SALMONELLA TYPHIMURIUM, Strain/Indicator: TA100, Metabolic Activation: RAT, LIVER, S-9, PCB, Method: PREINCUBATION).

Regarding `CC(=O)OC[C@]12C[C@H](OC(=O)CC(C)C)C(C)=C[C@H]1O[C@@H]1[C@H](O)[C@@H](OC(C)=O)[C@@]2(C)[C@]12CO2`, the mutagenic call by setting is: (Test System: AMES SALMONELLA TYPHIMURIUM, Strain/Indicator: TA98, Metabolic Activation: RAT LIVER S-9, DELOR 103, Method: STANDARD PLATE) “inactive; negative”; (Test System: AMES SALMONELLA TYPHIMURIUM, Strain/Indicator: TA98, Metabolic Activation: RAT, LIVER, MICROSOMES, PHENOBARBITAL, Method: STANDARD PLATE) “inactive; negative”; under setting [2], “inactive; negative”; (Test System: AMES SALMONELLA TYPHIMURIUM, Strain/Indicator: TA100, Metabolic Activation: RAT LIVER S-9, DELOR 103, Method: STANDARD PLATE) “inactive; negative”; (Test System: AMES SALMONELLA TYPHIMURIUM, Strain/Indicator: TA100, Metabolic Activation: RAT, LIVER, MICROSOMES, PHENOBARBITAL, Method: STANDARD PLATE) “inactive; negative”; (Test System: AMES SALMONELLA TYPHIMURIUM, Strain/Indicator: TA100, Metabolic Activation: RAT, LIVER, S-9, PHENOBARBITAL, Method: PREINCUBATION) “inactive; negative”. For the same compound, the mutagenic call (Test System: CHINESE HAMSTER, Strain/Indicator: V-79/6-THIOGUANINE, Metabolic Activation: NONE, Method: STANDARD PLATE) is “active; positive” and the mutagenic call (Test System: CHINESE HAMSTER, Strain/Indicator: V-79/6-THIOGUANINE, Metabolic Activation: S-9, Method: STANDARD PLATE) was “active; positive”.

For the compound `Cc1c2cccc(F)c2c(C)c2c1ccc1ccccc12`, the mutagenic call (Test System: CHINESE HAMSTER V-79, Strain/Indicator: V-79/OUABAIN, Metabolic Activation: CELL-MEDIATED, Method: STANDARD PLATE) is “active; positive”.

With `O=C1CCCCCCCCCCCC(=O)OCCO1`, the mutagenic call was “inactive; negative” under setting [1]; “inactive; negative” (Test System: AMES SALMONELLA TYPHIMURIUM, Strain/Indicator: TA98, Metabolic Activation: RAT, LIVER, S-9, SODIUM PHENOBARBITAL AND 5,6-BENZOFLAVONE, Method: PREINCUBATION); “inactive; negative” under setting [2]; “inactive; negative” (Test System: AMES SALMONELLA TYPHIMURIUM, Strain/Indicator: TA100, Metabolic Activation: RAT, LIVER, S-9, SODIUM PHENOBARBITAL AND 5,6-BENZOFLAVONE, Method: PREINCUBATION); “inactive; negative” (Test System: AMES SALMONELLA TYPHIMURIUM, Strain/Indicator: TA102, Metabolic Activation: NONE, Method: PREINCUBATION); “inactive; negative” (Test System: AMES SALMONELLA TYPHIMURIUM, Strain/Indicator: TA102, Metabolic Activation: RAT, LIVER, S-9, SODIUM PHENOBARBITAL AND 5,6-BENZOFLAVONE, Method: PREINCUBATION). Besides, the mutagenic call (Test System: AMES SALMONELLA TYPHIMURIUM, Strain/Indicator: TA104, Metabolic Activation: NONE, Method: PREINCUBATION) is “inactive; negative”; the mutagenic call (Test System: AMES SALMONELLA TYPHIMURIUM, Strain/Indicator: TA104, Metabolic Activation: RAT, LIVER, S-9, SODIUM PHENOBARBITAL AND 5,6-BENZOFLAVONE, Method: PREINCUBATION) was “inactive; negative”; the mutagenic call (Test System: AMES SALMONELLA TYPHIMURIUM, Strain/Indicator: TA1535, Metabolic Activation: NONE, Method: PREINCUBATION) is “inactive; negative”; the mutagenic call (Test System: AMES SALMONELLA TYPHIMURIUM, Strain/Indicator: TA1535, Metabolic Activation: RAT, LIVER, S-9, SODIUM PHENOBARBITAL AND 5,6-BENZOFLAVONE, Method: PREINCUBATION) was “inactive; negative”; the mutagenic call (Test System: AMES SALMONELLA TYPHIMURIUM, Strain/Indicator: TA1537, Metabolic Activation: NONE, Method: PREINCUBATION) was “inactive; negative”; the mutagenic call (Test System: AMES SALMONELLA TYPHIMURIUM, Strain/Indicator: TA1537, Metabolic Activation: RAT, LIVER, S-9, SODIUM PHENOBARBITAL AND 5,6-BENZOFLAVONE, Method: PREINCUBATION) is “inactive; negative”. Further, the mutagenic call by setting is: (Test System: E. COLI, Strain/Indicator: WP2UVRA/PKM101, Metabolic Activation: NONE, Method: PREINCUBATION) “inactive; negative”; (Test System: E. COLI, Strain/Indicator: WP2UVRA/PKM101, Metabolic Activation: RAT, LIVER, S-9, SODIUM PHENOBARBITAL AND 5,6-BENZOFLAVONE, Method: PREINCUBATION) “inactive; negative”; (Test System: E. COLI, Strain/Indicator: WP2UVRA, Metabolic Activation: NONE, Method: PREINCUBATION) “inactive; negative”; (Test System: E. COLI, Strain/Indicator: WP2UVRA, Metabolic Activation: RAT, LIVER, S-9, SODIUM PHENOBARBITAL AND 5,6-BENZOFLAVONE, Method: PREINCUBATION) “inactive; negative”.

In the case of `Clc1ccc(Cl)nc1`, the mutagenic call is “inactive; negative” (Test System: AMES SALMONELLA TYPHIMURIUM, Strain/Indicator: TA97, Metabolic Activation: NONE, Method: STANDARD PLATE); “inactive; negative” (Test System: AMES SALMONELLA TYPHIMURIUM, Strain/Indicator: TA97, Metabolic Activation: RAT, LIVER, S-9, AROCLOR 1254, Method: STANDARD PLATE); “inactive; negative” (Test System: AMES SALMONELLA TYPHIMURIUM, Strain/Indicator: TA98, Metabolic Activation: NONE, Method: STANDARD PLATE); “inactive; negative” (Test System: AMES SALMONELLA TYPHIMURIUM, Strain/Indicator: TA98, Metabolic Activation: RAT, LIVER, S-9, AROCLOR 1254, Method: STANDARD PLATE); “inactive; negative” (Test System: AMES SALMONELLA TYPHIMURIUM, Strain/Indicator: TA100, Metabolic Activation: NONE, Method: STANDARD PLATE); “inactive; negative” (Test System: AMES SALMONELLA TYPHIMURIUM, Strain/Indicator: TA100, Metabolic Activation: RAT, LIVER, S-9, AROCLOR 1254, Method: STANDARD PLATE). For the same compound, the mutagenic call reads like this: (Test System: AMES SALMONELLA TYPHIMURIUM, Strain/Indicator: TA102, Metabolic Activation: NONE, Method: STANDARD PLATE) “inactive; negative”; (Test System: AMES SALMONELLA TYPHIMURIUM, Strain/Indicator: TA102, Metabolic Activation: RAT, LIVER, S-9, AROCLOR 1254, Method: STANDARD PLATE) “inactive; negative”.

Take `O=C(N=c1sn(C(=O)c2ccc(Cl)c(Cl)c2)c2ccc([N+](=O)[O-])cc12)c1ccc(Cl)c(Cl)c1`: the mutagenic call (Test System: AMES SALMONELLA TYPHIMURIUM, Strain/Indicator: TA100, Metabolic Activation: S-9, Method: STANDARD PLATE) is “active; positive”.

With `c1ccc(-c2ccnc3c2ccc2c(-c4ccccc4)ccnc23)cc1`, the mutagenic call is “active; positive” (Test System: Mouse lymphoma, Strain/Indicator: L5178Y (tk+/tk-), Metabolic Activation: None, Method: Suspension/plate) and “equivocal” (Test System: Mouse lymphoma, Strain/Indicator: L5178Y (tk+/tk-), Metabolic Activation: Rat, Liver, S-9, Aroclor 1254, Method: Suspension/plate).

Turning to `Cc1c2ccccc2c(COS(=O)(=O)O)c2ccccc12`, the mutagenic call under setting [1] was “active; positive”.

Regarding `O=S(=O)(O)OCc1cc2ccccc2c2ccc3ccccc3c12`, the mutagenic call under setting [1] was “active; positive”.
